According to US20230058623A1, “NOVEL HETEROARYL-TRIAZOLE COMPOUNDS AS PESTICIDES” (Bayer Aktiengesellschaft, priority 2019, published 2023):

Experiments:
Format in all cases: in vivo
[1] = system: green peach aphid (Myzus persicae); experiment: Myzus persicae oral test; conditions: 120 h, read-out: activity (mortality)
Method: Solvent: 100 parts by weight acetone
To produce a suitable preparation of active compound, 1 part by weight of active compound is mixed with the stated amount of solvent, and the concentrate is diluted with water to the desired concentration.
50 μL compound solution is filled in microtiter plates and 150 μL IPL41 insect medium (33%+15% sugar) is added to obtain a total volume of 200 μL per well. Afterwards the plates are sealed with parafilm through which a mixed population of the green peach aphid (Myzus persicae) can suck on the compound preparation.
After 5 days mortality in % is determined. 100% means all aphids have been killed and 0% means none of the aphids have been killed.

[2] = system: larvae of the banded cucumber beetle (Diabrotica balteata); experiment: Diabrotica balteata spray test; conditions: 168 h, after 7 days, wheat seeds, read-out: activity (efficacy: seedlings grown); for pest or weed control at 160 µg/disc, 500 g/ha: application rate 500 g/ha (=160 μg/well); for pest or weed control at 32 µg/disc, 100 g/ha: application rate 100 g/ha (=32 μg/well)
Method: Diabrotica balteata—Spray Test
(§1) To produce a suitable preparation of active compound, 1 part by weight of active compound is mixed with the stated amount of solvent, and the concentrate is diluted with water, containing an emulsifier concentration of 1000 ppm, to the desired concentration. Further test concentrations are prepared by dilution with emulsifier containing water.
Soaked wheat seeds (Triticum aestivum) are placed in a multiple well plate filled with agar and some water and are incubated for 1 day to germinate (5 seeds per well). The germinated wheat seeds are sprayed with a test solution containing the desired concentration of the active ingredient. Afterwards each unit is infected with 10-20 larvae of the banded cucumber beetle (Diabrotica balteata).
After 7 days efficacy in % is determined. 100% means all the seedlings have grown up like in the untreated, uninfected control; 0% means none of the seedlings have grown.

[3] = system: Rhipicephalus (Boophilus) microplus larvae (strain Parkhurst, resistant against synthetic pyrethroids); experiment: Rhipicephalus (Boophilus) microplus in-vitro contact test, larval cattle tick; conditions: after 48 hours, read-out: activity (efficacy: larvae dead or moribund); for pest or weed control at 1 µg/cm2, 100 g/ha: application rate 1 μg/cm^2 (=100 g/ha); for pest or weed control at 5 µg/cm2, 500 g/ha: application rate 5 μg/cm^2 (=500 g/ha)
Method: Rhipicephalus (Boophilus) microplus—In-Vitro Contact Tests Larval Cattle Tick (Strain Parkhurst, Resistant Against Synthetic Pyrethroids)
(§2) 9 mg compound is solved in 1 ml acetone and diluted with acetone to the desired concentration. 250 μL of the test solution is filled in 25 mL glass test tubes and homogeneously distributed on the inner walls by rotation and tilting on a shaking device (2 h at 30 rpm). With a compound concentration of 900 ppm, an inner surface of 44.7 cm^2 and a homogeneous distribution, a dose of 5 μg/cm^2 is achieved.
After the solvent has evaporated, each test tube is filled with 20-50 cattle tick larvae (Rhipicephalus microplus), closed with a perforated lid and incubated in a horizontal position at 85% relative humidity and 27° C. in an incubator. After 48 hours efficacy is determined. The larvae are patted on the ground of the tubes and negative geotactic behavior is recorded.
An efficacy of 100% means all larvae are dead or moribund; 0% means no larvae are dead or moribund.

[4] = system: fall armyworm larvae (Spodoptera frugiperda); experiment: Spodoptera frugiperda spray test; conditions: 168 h, application rate 100 g/ha, after 7 days, maize leaf sections
Method: Spodoptera frugiperda—Spray Test
as §1, with “solvents” for “solvent,”, “and” for “and the concentrate”
Maize (Zea mays) leaf sections are sprayed with a preparation of the active ingredient of the desired concentration. Once dry, the leaf sections are infested with fall armyworm larvae (Spodoptera frugiperda).
After 7 days mortality in % is determined. 100% means all caterpillars have been killed and 0% means none of the caterpillars have been killed.

[5] = system: adult cat fleas (Ctenocephalides felis); experiment: Ctenocephalides felis in-vitro contact test, adult cat flea; conditions: application rate 5 μg/cm^2 (=500 g/ha), after 48 hours, read-out: activity (efficacy: fleas dead or moribund)
Method: Ctenocephalides felis—In-Vitro Contact Tests Adult Cat Flea
as §2, with “mL” for “ml”
After the solvent has evaporated, each test tube is filled with 5-10 adult cat fleas (Ctenocephalides felis), closed with a perforated lid and incubated in a lying position at room temperature and relative humidity. After 48 hours efficacy is determined. The fleas are patted on the ground of the tubes and are incubated on a heating plate at 45-50° C. for at most 5 minutes. Immotile or uncoordinated moving fleas, which are not able to escape the heat by climbing upwards, are marked as dead or moribund.
An efficacy of 100% means all fleas are dead or moribund; 0% means no fleas are dead or moribund.

Cc1nc([C@H](C)NC(=O)c2cc(Cl)cc(C(F)(F)F)c2)n(-c2ccc(C(=O)N3CC(O)C3)cn2)n1 [Example I-21]
mortality at 4 ppm [1]: 100%

C[C@H](NC(=O)c1cc(Cl)cc(C(F)(F)F)c1)c1ncnn1-c1ccc(C(=O)N2[C@@H](C)CCC[C@@H]2C)cn1 [Example I-39]
pest or weed control at 160 µg/disc, 500 g/ha [2]: 100%

C[C@H](NC(=O)c1cc(C(F)(F)F)cc(C(F)(F)F)c1)c1ncnn1-c1ccc(N2CCOCC2)cn1 [Example I-44, N-[(1S)-1-{1-[5-(morpholin-4-yl)pyridin-2-yl]-1H-1,2,4-triazol-5-yl}ethyl]-3,5-bis(trifluoromethyl)benzamide]
pest or weed control at 1 µg/cm2, 100 g/ha [3]: 100% | pest or weed control at 5 µg/cm2, 500 g/ha [3]: 100% | pest or weed control at 32 µg/disc, 100 g/ha [2]: 100% | mortality at 100 g/ha [4]: 100%

C[C@H](NC(=O)c1cc(Cl)cc(C(F)(F)F)c1)c1ncnn1-c1ccc(N2CCCCC2=O)cn1 [Example I-57]
mortality at 4 ppm [1]: 90%

CC(NC(=O)c1cc(F)cc(C#N)c1)c1nc(C(F)F)nn1-c1ccc(C(=O)N2CCOCC2)cn1 (stereo not drawn) [Example I-60]
pest or weed control at 32 µg/disc, 100 g/ha [2]: 100% | pest or weed control at 160 µg/disc, 500 g/ha [2]: 100%

C[C@H](NC(=O)c1cc(C(F)(F)F)cc(C(F)(F)F)c1)c1ncnn1-c1ccc(C(=O)NC2CC(C)(C)OC(C)(C)C2)cn1 [Example I-64]
pest or weed control at 1 µg/cm2, 100 g/ha [3]: 90% | pest or weed control at 5 µg/cm2, 500 g/ha [3]: 80% | pest or weed control at 32 µg/disc, 100 g/ha [2]: 100%

CC1CCN(C(=O)c2ccc(-n3ncnc3[C@H](C)NC(=O)c3cc(C(F)(F)F)cc(C(F)(F)F)c3)nc2)CC1 [Example I-73]
pest or weed control at 1 µg/cm2, 100 g/ha [3]: 100% | pest or weed control at 5 µg/cm2, 500 g/ha [3]: 100% | pest or weed control at 32 µg/disc, 100 g/ha [2]: 100%

Cc1nc([C@H](C)NC(=O)c2cc(C(F)(F)F)cc(C(F)(F)F)c2)n(-c2ccc(C(=O)N3CCC(C)CC3)cn2)n1 [Example I-74]
pest or weed control at 1 µg/cm2, 100 g/ha [3]: 90% | pest or weed control at 5 µg/cm2, 500 g/ha [3]: 90% | pest or weed control at 32 µg/disc, 100 g/ha [2]: 100%

CC(NC(=O)c1cc(Br)cc(Br)c1)c1nc(Br)nn1-c1ccc(C(=O)N2CCOCC2)cn1 (stereo not drawn) [Example I-85]
pest or weed control at 1 µg/cm2, 100 g/ha [3]: 100% | pest or weed control at 5 µg/cm2, 500 g/ha [3]: 100%

C[C@@H]1CN(C(=O)c2ccc(-n3nc(C4CC4)nc3[C@H](C)NC(=O)c3cc(Cl)cc(S(=O)(=O)C4CC4)c3)nc2)C[C@H](C)O1 [Example I-91]
pest or weed control at 32 µg/disc, 100 g/ha [2]: 100% | mortality at 100 g/ha [4]: 100%

C[C@H](NC(=O)c1cc(Cl)cc(S(C)(=O)=O)c1)c1ncnn1-c1ccc(C(=O)N2CCS(=O)(=O)CC2)cn1 [Example I-96]
mortality at 4 ppm [1]: 100%

CON(C)C(=O)c1cnc(-n2nc(C)nc2[C@H](C)NC(=O)c2cc(C(F)(F)F)cc(C(F)(F)F)c2)s1 [Example I-97]
mortality at 4 ppm [1]: 100% | pest or weed control at 1 µg/cm2, 100 g/ha [3]: 100% | pest or weed control at 5 µg/cm2, 500 g/ha [3]: 100% | pest or weed control at 32 µg/disc, 100 g/ha [2]: 100%

Cc1nc([C@H](C)NC(=O)c2cc(C(F)(F)F)cc(C(F)(F)F)c2)n(-c2ccc(C(=O)N3CCOCC3c3ccnn3C)cn2)n1 (stereo partly drawn) [Example I-101]
pest or weed control at 1 µg/cm2, 100 g/ha [3]: 80% | pest or weed control at 5 µg/cm2, 500 g/ha [3]: 80% | mortality at 100 g/ha [4]: 100% | pest or weed control at 5 µg/cm2 [5]: 80%

C[C@H](NC(=O)c1cc(Br)cc(Br)c1)c1ncnn1-c1ccc(N2CCOCC2)cn1 [Example I-103]
pest or weed control at 1 µg/cm2, 100 g/ha [3]: 90% | pest or weed control at 5 µg/cm2, 500 g/ha [3]: 100% | pest or weed control at 32 µg/disc, 100 g/ha [2]: 100%

C[C@H](NC(=O)c1cc(Cl)cc(S(=O)(=O)C(F)(F)F)c1)c1ncnn1-c1ccc(N2CCOCC2)cn1 [Example I-105]
pest or weed control at 1 µg/cm2, 100 g/ha [3]: 100% | pest or weed control at 5 µg/cm2, 500 g/ha [3]: 100% | pest or weed control at 32 µg/disc, 100 g/ha [2]: 100% | mortality at 100 g/ha [4]: 83%

C[C@H](NC(=O)c1cc(C(F)(F)F)cc(C(F)(F)F)c1)c1ncnn1-c1ccc(C(=O)NC2CCOCC2)cn1 [Example I-111]
mortality at 4 ppm [1]: 90% | pest or weed control at 1 µg/cm2, 100 g/ha [3]: 100% | pest or weed control at 5 µg/cm2, 500 g/ha [3]: 100%

C[C@H](NC(=O)c1cc(C(F)(F)F)cc(C(F)(F)F)c1)c1ncnn1-c1ccc(C(=O)NC2CCSCC2)cn1 [Example I-113]
mortality at 4 ppm [1]: 100% | pest or weed control at 1 µg/cm2, 100 g/ha [3]: 100% | pest or weed control at 5 µg/cm2, 500 g/ha [3]: 100%

C[C@H](NC(=O)c1cc(Cl)cc(S(C)(=O)=O)c1)c1ncnn1-c1ccc(C(=O)N2CCOCC2)cn1 [Example I-119]
mortality at 4 ppm [1]: 100%

C[C@H](NC(=O)c1cc(Cl)cc(C(F)(F)F)c1)c1ncnn1-c1ccc(S(=O)(=O)N2CCOCC2)cn1 [Example I-123]
pest or weed control at 1 µg/cm2, 100 g/ha [3]: 100% | pest or weed control at 5 µg/cm2, 500 g/ha [3]: 100% | pest or weed control at 32 µg/disc, 100 g/ha [2]: 80%

C[C@H](NC(=O)c1cc(OC(F)(F)F)cc(C2CC2)c1)c1ncnn1-c1ccc(S(=O)(=O)N2CCOCC2)cn1 [Example I-125]
pest or weed control at 1 µg/cm2, 100 g/ha [3]: 100% | pest or weed control at 5 µg/cm2, 500 g/ha [3]: 100% | pest or weed control at 32 µg/disc, 100 g/ha [2]: 100% | pest or weed control at 160 µg/disc, 500 g/ha [2]: 100%

C[C@H](NC(=O)c1cc(C(F)(F)F)cc(C(F)(F)F)c1)c1ncnn1-c1ccc(S(=O)(=O)N2CCOCC2)cn1 [Example I-127, N-[(1S)-1-{1-[5-(morpholin-4-ylsulfonyl)pyridin-2-yl]-1H-1,2,4-triazol-5-yl}ethyl]-3,5-bis(trifluoromethyl)benzamide]
pest or weed control at 1 µg/cm2, 100 g/ha [3]: 100% | pest or weed control at 5 µg/cm2, 500 g/ha [3]: 100%

C[C@H](NC(=O)c1cc(C(F)(F)F)cc(C(F)(F)F)c1)c1ncnn1-c1ccc(N2CCOCC2=O)cn1 [Example I-128, N-[(1S)-1-{1-[5-(3-oxomorpholin-4-yl)pyridin-2-yl]-1H-1,2,4-triazol-5-yl}ethyl]-3,5-bis(trifluoromethyl)benzamide]
mortality at 4 ppm [1]: 100% | pest or weed control at 1 µg/cm2, 100 g/ha [3]: 100% | pest or weed control at 5 µg/cm2, 500 g/ha [3]: 100%

Cc1nc([C@H](C)NC(=O)c2cc(OC(F)(F)F)cc(C3CC3)c2)n(-c2ccc(C(=O)N3CCOC[C@@H]3C)cn2)n1 [Example I-129]
pest or weed control at 1 µg/cm2, 100 g/ha [3]: 100% | pest or weed control at 5 µg/cm2, 500 g/ha [3]: 100% | pest or weed control at 5 µg/cm2 [5]: 100%

Cc1nc([C@H](C)NC(=O)c2cc(OC(F)(F)F)cc(C3CC3)c2)n(-c2ncc(C(=O)N3CCOCC3)s2)n1 [Example I-137]
mortality at 100 g/ha [4]: 100%

C[C@@H]1CN(C(=O)c2cnc(-n3ncnc3[C@H](C)NC(=O)c3cc(OC(F)(F)F)cc(S(C)(=O)=O)c3)cn2)C[C@H](C)O1 [Example I-142]
mortality at 100 g/ha [4]: 100%

C[C@H](NC(=O)c1cc(C(F)(F)F)cc(C(F)(F)F)c1)c1ncnn1-c1cnc(C(=O)N2CCCC2)cn1 [Example I-144]
pest or weed control at 32 µg/disc, 100 g/ha [2]: 100% | mortality at 100 g/ha [4]: 100%

C[C@@H]1CN(C(=O)c2cnc(-n3ncnc3[C@H](C)NC(=O)c3cc(C(F)(F)F)cc(C(F)(F)F)c3)nc2)C[C@H](C)O1 [Example I-146]
pest or weed control at 32 µg/disc, 100 g/ha [2]: 100% | mortality at 100 g/ha [4]: 100%
